# Experimental data taken from patent US20240261244A1, “METHODS FOR TREATING VIRAL INFECTIONS” (Daarsh Innovations, Inc., priority 2023, published 2024).
# System: SARS Cov-2 virus
# Type: cell-based
# Details: 90 μL test solution + 10 μL virus (about 10^5 PFU/ml), 3 minutes contact at room temperature; plaque assay on Vero E6 cells
smiles,measurement,value
"O=C(O)CN(CCN(CC(=O)O)CC(=O)O)CC(=O)O [EDTA 5%, ethylenediaminetetraacetic acid]",Residual Viral Load (Log PFU/0.1 ml),3.40 Log PFU/0.1 ml
